Data reported in PubChem BioAssay AID248 (DTP/NCI, 2004).
Several values for one entry are separate records, joined by “and”; a condition that tells them apart may be missing. Equal values may be shown once. Toxic doses and inconclusive results are not listed. No stated cut-off is given here; in the data, active means T/C of 150% or more; inactive means T/C below 125%. Peptide text beside a SMILES is read from it. * marks the point of attachment. Boc = CC(C)(C)OC(=O)*

Tested on: L1210 leukemia ip in BDF1 mice, survival T/C
Test: NCI In Vivo Anticancer Drug Screen. Data for tumor model L1210 Leukemia (intraperitoneal) in B6D2F1 (BDF1) mice
Conditions: endpoint: mean survival time, higher = longer survival
Summary of the method: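 Mice bearing the transplanted tumor received compound or vehicle. Survival of the treated group was divided by that of the vehicle-treated control group to give the ratio.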

[1] = dose: 50.0 mg/kg/injection, schedule: Q01DX009 (ip), vehicle: saline
[2] = dose: 100.0 mg/kg/injection, schedule: Q01DX009 (ip), vehicle: saline
[3] = dose: 200.0 mg/kg/injection, schedule: Q01DX009 (ip), vehicle: saline
[4] = dose: 100.0 mg/kg/injection, schedule: Q01DX009 (ip), vehicle: Klucel (hydroxypropylcellulose) (HPC)
[5] = dose: 100.0 mg/kg/injection, schedule: Q04DX003 (ip), vehicle: Klucel (hydroxypropylcellulose) (HPC)
[6] = dose: 200.0 mg/kg/injection, schedule: Q01DX009 (ip), vehicle: Klucel (hydroxypropylcellulose) (HPC)
[7] = dose: 200.0 mg/kg/injection, schedule: Q04DX003 (ip), vehicle: Klucel (hydroxypropylcellulose) (HPC)
[8] = dose: 400.0 mg/kg/injection, schedule: Q01DX009 (ip), vehicle: Klucel (hydroxypropylcellulose) (HPC)
[9] = dose: 400.0 mg/kg/injection, schedule: Q04DX003 (ip), vehicle: Klucel (hydroxypropylcellulose) (HPC)
[10] = dose: 100.0 mg/kg/injection, schedule: Q04DX003 (ip), vehicle: saline with Tween-80
[11] = dose: 200.0 mg/kg/injection, schedule: Q04DX003 (ip), vehicle: saline with Tween-80
[12] = dose: 12.0 mg/kg/injection, schedule: Q01DX001 (ip), vehicle: saline
[13] = dose: 25.0 mg/kg/injection, schedule: Q01DX001 (ip), vehicle: saline
[14] = dose: 100.0 mg/kg/injection, schedule: Q04DX002 (ip), vehicle: Klucel (hydroxypropylcellulose) (HPC)
[15] = dose: 200.0 mg/kg/injection, schedule: Q04DX002 (ip), vehicle: Klucel (hydroxypropylcellulose) (HPC)
[16] = dose: 400.0 mg/kg/injection, schedule: Q04DX002 (ip), vehicle: Klucel (hydroxypropylcellulose) (HPC)

Measured: T/C

CC1CN=C(c2ccc(O)cc2)S1 (stereo not given)
inactive: [1] 102 % of control | dose: 100.0 mg/kg/injection, schedule: Q01DX005 (ip), vehicle: saline 104 % of control | [2] 106 % of control | dose: 100.0 mg/kg/injection, schedule: Q04DX002 (ip), vehicle: saline 96 % of control | dose: 200.0 mg/kg/injection, schedule: Q01DX005 (ip), vehicle: saline 104 % of control | [3] 102 % of control | dose: 200.0 mg/kg/injection, schedule: Q04DX002 (ip), vehicle: saline 104 % of control | dose: 400.0 mg/kg/injection, schedule: Q04DX002 (ip), vehicle: saline 107 % of control

CC1(C)SCC(C(=O)N2CCCC2C(=O)OC2CCCCC2)N1C=O (stereo not given)
inactive: dose: 100.0 mg/kg/injection, schedule: Q04DX003 (ip), vehicle: saline 92 % of control | dose: 400.0 mg/kg/injection, schedule: Q04DX003 (ip), vehicle: saline 97 % of control

CCOC(=O)C(C)NCc1ccccc1 (stereo not given)
inactive: [4] 94 % of control | [5] 98 % of control | [6] 111 % of control | [7] 93 % of control | [8] 103 % of control | [9] 96 % of control

Nc1ccc(S(=O)(=O)NC(=O)NCc2ccccc2)cc1
inactive: [10] 101 % of control | [11] 98 % of control | dose: 400.0 mg/kg/injection, schedule: Q04DX003 (ip), vehicle: saline with Tween-80 101 % of control

NC(=O)CCc1cnc2ccccc2n1
inactive: [4] 89 % of control | [5] 106 % of control | [6] 95 % of control | [7] 106 % of control | [8] 90 % of control | [9] 97 % of control

O=[N+]([O-])c1ccc(S(=O)NOCc2ccccc2)cc1 (stereo not given)
inactive: [4] 96 % of control | [6] 94 % of control | [8] 91 % of control

CN(C)c1ccc(C=Nc2ccc(Cc3ccncc3)cc2)cc1
inactive: [4] 99 % of control | [6] 98 % of control | [8] 100 % of control

Cc1nc2c(nc1C)C(=O)C=CC2=O
inactive: dose: 5.0 mg/kg/injection, schedule: Q01DX001 (ip), vehicle: carboxymethylcellulose (CMC) 100 % of control | dose: 10.0 mg/kg/injection, schedule: Q01DX001 (ip), vehicle: carboxymethylcellulose (CMC) 96 % of control | dose: 20.0 mg/kg/injection, schedule: Q01DX001 (ip), vehicle: carboxymethylcellulose (CMC) 94 % of control

CN(C)c1ccc(/C=N/NC(=S)Nc2cccc3cccnc23)cc1
inactive: dose: 100.0 mg/kg/injection, schedule: Q01DX001 (ip), vehicle: saline 105 % of control | dose: 200.0 mg/kg/injection, schedule: Q01DX001 (ip), vehicle: saline 102 % of control | dose: 400.0 mg/kg/injection, schedule: Q01DX001 (ip), vehicle: saline 96 % of control

Cc1cc(C)c(O)c(C(C)(C)C)c1
inactive: dose: 50.0 mg/kg/injection, schedule: Q04DX003 (ip), vehicle: saline with Tween-80 102 % of control | [10] 101 % of control | [11] 107 % of control

Nc1ccc2nc3ccc(N)cc3[n+](-c3ccccc3)c2c1
inactive: dose: 5.0 mg/kg/injection, schedule: Q01DX001 (ip), vehicle: other 111 % of control | dose: 10.0 mg/kg/injection, schedule: Q01DX001 (ip), vehicle: other 108 % of control | dose: 18.0 mg/kg/injection, schedule: Q01DX001 (ip), vehicle: other 101 % of control and 103 % of control | dose: 20.0 mg/kg/injection, schedule: Q01DX001 (ip), vehicle: other 108 % of control | dose: 27.0 mg/kg/injection, schedule: Q01DX001 (ip), vehicle: other 106 % of control and 118 % of control | dose: 40.0 mg/kg/injection, schedule: Q01DX001 (ip), vehicle: other 110 % of control and 114 % of control | dose: 60.0 mg/kg/injection, schedule: Q01DX001 (ip), vehicle: other 104 % of control

COc1c(OC2OC(CO)C(O)C(O)C2O)cc2c(c1OC)-c1ccc(SC)c(=O)cc1C(NC(C)=O)CC2 (stereo not given)
inactive: dose: 6.0 mg/kg/injection, schedule: Q01DX009 (ip), vehicle: saline 97 % of control | [12] 98 % of control | dose: 12.0 mg/kg/injection, schedule: Q01DX009 (ip), vehicle: saline 98 % of control | [13] 100 % of control | dose: 25.0 mg/kg/injection, schedule: Q01DX009 (ip), vehicle: saline 101 % of control

OC1(c2ccccc2)CC2CCCCC2c2ccccc21 (stereo not given)
inactive: [12] 98 % of control | [13] 100 % of control | dose: 50.0 mg/kg/injection, schedule: Q01DX001 (ip), vehicle: saline 102 % of control

CCCCCCCCCCCCCCCCOc1ccc(F)cc1F
inactive: [14] 118 % of control | [15] 96 % of control | [16] 96 % of control

COC(=O)C(Cc1ccccc1)NC(=O)C(Cc1ccccc1)NC(=O)OC(C)(C)C (stereo not drawn) (Boc-Phe-Phe-OMe; configuration not given here)
inactive: [14] 94 % of control | [15] 101 % of control | [16] 108 % of control

CCCCCCCCC/C(C)=N/NC(=O)c1ccc[n+](C)c1
inactive: [1] 93 % of control | [2] 93 % of control | [3] 96 % of control

Fc1cc(F)c(F)c(Oc2c(F)c(F)c(F)c(F)c2F)c1F
inactive: [5] 100 % of control | [7] 95 % of control | [9] 93 % of control

C=C1C(=O)OC2CC(C)C(C(O)CC(C)O)=CCC12 (stereo not given)
inactive: dose: 50.0 mg/kg/injection, schedule: Q01DX001 (ip), vehicle: water 95 % of control | dose: 100.0 mg/kg/injection, schedule: Q01DX001 (ip), vehicle: water 95 % of control

CCOC(=O)/C(=C\c1ccccc1)c1nc2ccccc2[nH]1
inactive: [14] 97 % of control | [15] 101 % of control | [16] 94 % of control

CN(C)/C=C1/C=Cc2ccccc21
inactive: [2] 98 % of control | [3] 101 % of control | dose: 400.0 mg/kg/injection, schedule: Q01DX009 (ip), vehicle: saline 97 % of control
